“Also recorded” adds a separate entry of the source.
Experiments:
[1] = tested on: GABA receptor; details: literature statement; cited from earlier work
[2] = tested on: BTBR mice; assay: ASD-related behaviors overall (marble burying, direct social interaction, open field) in BTBR mice; format: in vivo, mouse; details: for ASD-related behaviors, administration post weaning: BTBR mice, 10 mM in drinking water to juvenile mice starting 3-4 weeks of age through adulthood; for ASD-related behaviors / symptoms, prenatal administration: BTBR mouse model, 10 mM orally in drinking water from before mating (conception) through adulthood
Protocol: FIGS. 5A-D are a series of drawings illustrating that differential metabolites impact ASD-relevant behaviors in SPF mice in accordance with some embodiments herein. FIG. 5A: The abundance of select metabolites in the offspring microbiome is correlated with behavior of male offspring. Spearman correlation between the microbiome and mouse behavior, by donor (See FIGS. 1A-0). […] Color scale denotes Spearman ρ. […] Groups of mice were orally administered 10 mM Taurine or 5AV in drinking water before mating, and throughout their lifetime. Offspring were tested by marble burying, direct social interaction, and open field tests, and compared to untreated vehicle controls. Results are aggregated from 2 independent experiments. NControl=42, […]=52, NTaurine=36. Bar plots denote mean and S.E.M. Hypothesis on differences in means were tested by ANOVA on trimmed means (10%) and subsequent posthoc tests. FIGS. 5E-L: qPCR of BTBR brains after 5AV and taurine administration. Results are aggregated from 2 independent experiments. Hypothesis on differences in means were tested by ANOVA on trimmed means (10%) and subsequent posthoc tests. FIGS. 5M-V: series of graphs illustrating E18 B6 feeding 5AV and Taurine targeted metabolomics. […] In FIGS. 9A-K, mice were orally administered 10 mM Taurine or 5AV in drinking water starting 3-4 weeks of age mating, and throughout their lifetime. Offspring were tested by marble burying, direct social interaction, and open field tests, and compared to untreated vehicle controls. Results are aggregated from 2 independent experiments. NControl=20, […]=18, NTaurine=20. Bar plots denote mean and S.E.M. hypothesis on differences means were tested by ANOVA on trimmed means (10%) and subsequent posthoc tests. FIGS. 9L-Q illustrate basal properties of L5 pyramidal neurons in the mPFC. […] Taurine was orally administered to BTBR mice, a validated mouse model for ASD (McFarlane et al., 2008), from conception through adulthood to capture both prenatal and postnatal neurodevelopmental periods. […] It is will appreciated that the blood-brain barrier comprises endothelial cells, and selectively permits the movement of substances between circulating blood and the brain, for example permitting some molecules to pass from the blood to the brain, while preventing other molecules from passing from the blood to the brain. As such, it will be appreciated that at a given stage of development, some molecules may readily pass through the blood brain barrier, while others may not.

[3] = tested on: BTBR mice; assay: Direct social interaction (DSI) test, BTBR mice given metabolites; format: in vivo, mouse; details: BTBR offspring; 10 mM in drinking water before mating and throughout lifetime (prenatal administration); vs untreated vehicle controls
Protocol: FIGS. 5A-D are a series of drawings illustrating that differential metabolites impact ASD-relevant behaviors in SPF mice in accordance with some embodiments herein. FIG. 5A: The abundance of select metabolites in the offspring microbiome is correlated with behavior of male offspring. Spearman correlation between the microbiome and mouse behavior, by donor (See FIGS. 1A-0). […] Color scale denotes Spearman ρ. […] Groups of mice were orally administered 10 mM Taurine or 5AV in drinking water before mating, and throughout their lifetime. Offspring were tested by marble burying, direct social interaction, and open field tests, and compared to untreated vehicle controls. […] Social Behavior (SI)-direct social interaction (DSI) test-As a more sensitive measure for sociability, the direct social interaction test was also used, where a mouse is allowed to interact with a stimulus mouse while the interaction is being recorded. Each mouse was introduced to a fresh empty cage and allowed to habituate for 10 minutes; grooming behavior was scored for the last five minutes of this period. […] A blinded observer scored videos for any social approach, aggression, or grooming behavior […] using the ETHOM software (Shih and Mok, 2000). […] As such, it will be appreciated that at a given stage of development, some molecules may readily pass through the blood brain barrier, while others may not.

SMILES	GABA receptor agonism [1]	ASD-related behaviors, administration post weaning [2]	ASD-related behaviors / symptoms, prenatal administration [2]	sociability / social duration (direct social interaction) [3]	ASD-related behaviors, administration post weaning ([2]; listed as Taurine)	ASD-related behaviors / symptoms, prenatal administration ([2]; listed as Taurine)
NCCCCC(=O)O [5AV, 5-Aminovaleric acid]	weak GABA receptor agonist	did not rescue behavioral alterations; also recorded: no effects on ASD-related behaviors; also recorded: did not have these effects	significant improvement in ASD-related behaviors; also recorded: ameliorate ASD-related behavioral deficits; also recorded: reduces and/or prevents symptoms of ASD	increases sociability		
NCCS(=O)(=O)O [taurine]	weak GABA agonist	did not rescue behavioral alterations; also recorded: did not have these effects	significant improvement in ASD-related behaviors; also recorded: reduces and/or prevents symptoms of ASD	trend toward increasing social duration in all mice; also recorded: increases sociability	no effects on ASD-related behaviors	ameliorate ASD-related behavioral deficits

— patent US20230158084A1, “PROBIOTICS, METABOLITES, AND USES THEREOF” (California Institute of Technology, priority 2018, published 2023)
